The target in one test is GST-Bcl-2 (Homo sapiens, UniProt P10415). The experiment in a line: TR-FRET binding assay, GST-Bcl-2 with F-Bak peptide probe. The note with it: TR-FRET Binding Affinity, GST-Bcl-2, F-Bak peptide probe. The method in brief:
(§1)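 Ki was derived with Wang's equation for competitive binding of two ligands. The read-out was time-resolved fluorescence after a 3 h room-temperature incubation, using a Tb-labelled antibody donor and the F-Bak peptide acceptor (excitation 340/35 nm). Test compounds entered as DMSO serial dilutions starting at 50 μM, which was the 2× concentration.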

The next test has as its target GST-Bcl-XL (Homo sapiens, UniProt Q07817). Nature of the test: TR-FRET binding assay, GST-Bcl-XL with F-Bak peptide probe. The conditions noted are these: TR-FRET Binding Affinity, GST-Bcl-XL, F-Bak peptide probe. The method in brief: as §1
The next test has as its system FL5.12/Bcl-2 cells. Nature of the test: FL5.12/Bcl-2 cell viability assay under IL-3 withdrawal (CellTitre Glo). The note with it: Mus musculus, IL-3 withdrawn 48 hrs, then 24 hrs with compound. Format: cell-based, murine. An excerpt: FL5.12 is an IL-3 dependent prolymphocytic murine cell line that undergoes apoptosis upon IL-3 withdrawal as a result of the upregulation of pro-apoptotic Bcl-2 proteins such as Bim and Puma. Stable overexpression of anti-apoptotic Bcl-2 protein (FL5.12/Bcl-2) protects against apoptosis induced by IL-3 withdrawal by sequestration of Bim and Puma. […] The ability of compounds to kill FL5.12/Bcl-2 cells upon IL-3 withdrawal is a direct measure of the compounds' ability to inhibit anti-apoptotic Bcl-2 protein function.
Wild type FL5.12/Bcl-2 overexpressing stable transfectants were cultured in RPMI-1640 supplemented with 2 mM L-glutamine, 10% FBS, 1 mM sodium pyruvate, 2 mM HEPES, 1% penicillin/streptomycin (Invitrogen), 57 μM β-ME, and 10% WEHI-3B conditioned medium (source of IL-3) and maintained at 37° C. containing 5% CO2. 1×10^6 cells/ml were washed 1×PBS and resuspended in medium not supplemented with 10% WEHI-3B for 48 hrs prior to cytotoxicity assays. Cells were then treated for an additional 24 hrs in the presence of various concentrations of the indicated compounds. Cell viability was assessed by CellTitre Glo assay (Promega Corp.) according to the manufacturer's recommendations.

GST-Bcl-2, sequence (P10415 whole entry): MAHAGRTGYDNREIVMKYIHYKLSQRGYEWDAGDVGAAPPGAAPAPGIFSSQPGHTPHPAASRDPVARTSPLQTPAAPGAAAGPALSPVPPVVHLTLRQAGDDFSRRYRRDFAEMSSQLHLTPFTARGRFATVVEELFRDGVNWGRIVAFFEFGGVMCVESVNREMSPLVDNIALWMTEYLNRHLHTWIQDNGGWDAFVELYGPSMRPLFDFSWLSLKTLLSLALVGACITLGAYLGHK
GST-Bcl-XL, sequence (Q07817 whole entry): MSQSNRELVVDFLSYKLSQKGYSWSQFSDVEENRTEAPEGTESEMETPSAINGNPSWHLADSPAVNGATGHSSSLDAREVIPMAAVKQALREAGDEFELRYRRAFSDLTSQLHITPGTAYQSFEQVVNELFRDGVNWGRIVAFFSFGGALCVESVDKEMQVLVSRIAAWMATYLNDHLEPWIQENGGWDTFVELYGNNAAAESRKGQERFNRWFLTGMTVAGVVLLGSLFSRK

Consider `CC(c1ccccc1-c1ccc(Cl)cc1)N1CCN(c2ccc(C(=O)NS(=O)(=O)c3ccc(NCC4CCOCC4)c([N+](=O)[O-])c3)c(Oc3cccc4[nH]ccc34)c2)CC1` (stereo not drawn) [Example 175, 4-{4-[1-(4′-chloro-1,1′-biphenyl-2-yl)ethyl]piperazin-1-yl}-2-(1H-indol-4-yloxy)-N-({3-nitro-4-[(tetrahydro-2H-pyran-4-ylmethyl)amino]phenyl}sulfonyl)benzamide], for which the values for the inhibitory constant (Ki) at GST-Bcl-2 and at GST-Bcl-XL were 0.1 nM and > 660 nM, respectively. Also, the EC50 in the test with FL5.12/Bcl-2 cells was determined as 6.2 nM.
Consider `CC1(C)CCC(CN2CCN(c3ccc(C(=O)NS(=O)(=O)c4ccc(NCC5(N)CCOCC5)c([N+](=O)[O-])c4)c(Oc4cccc5[nH]ccc45)c3)CC2)=C(c2ccc(Cl)cc2)C1` [Example 176, N-[(4-{[(4-aminotetrahydro-2H-pyran-4-yl)methyl]amino}-3-nitrophenyl)sulfonyl]-4-(4-{[2-(4-chlorophenyl)-4,4-dimethylcyclohex-1-en-1-yl]methyl}piperazin-1-yl)-2-(1H-indol-4-yloxy)benzamide], for which the inhibitory constant (Ki) came out at 0.18 nM at GST-Bcl-2 and 32 nM at GST-Bcl-XL. Moreover, the EC50 with FL5.12/Bcl-2 cells was found to be 58.5 nM.
On to `CC1(C)CCC(CN2CCN(c3ccc(C(=O)NS(=O)(=O)c4ccc(NCC5CCOCC5)c([N+](=O)[O-])c4)c(Oc4ccc5[nH]ccc5c4)c3)CC2)=C(c2ccc(Cl)cc2)C1` [Example 177, 4-(4-{[2-(4-chlorophenyl)-4,4-dimethylcyclohex-1-en-1-yl]methyl}piperazin-1-yl)-2-(1H-indol-5-yloxy)-N-({3-nitro-4-[(tetrahydro-2H-pyran-4-ylmethyl)amino]phenyl}sulfonyl)benzamide], for which the Ki was 0.165 nM on GST-Bcl-2 and 132 nM on GST-Bcl-XL. Also, the EC50 in the test on FL5.12/Bcl-2 cells came to 19.7 nM.
With `CC1(C)CCC(CN2CCN(c3ccc(C(=O)NS(=O)(=O)c4ccc(N[C@H]5CC[C@H](N6CCOCC6)CC5)c([N+](=O)[O-])c4)c(Oc4ccc5[nH]ccc5c4)c3)CC2)=C(c2ccc(Cl)cc2)C1` [Example 178, Trans-4-(4-{[2-(4-chlorophenyl)-4,4-dimethylcyclohex-1-en-1-yl]methyl}piperazin-1-yl)-2-(1H-indol-5-yloxy)-N-({4-[(4-morpholin-4-ylcyclohexyl)amino]-3-nitrophenyl}sulfonyl)benzamide], the inhibitory constant (Ki) on GST-Bcl-XL was > 660 nM. For the same molecule, in the test on FL5.12/Bcl-2 cells, the half-maximal effective concentration (EC50) is 18.6 nM.
For `COCCNc1ccc(S(=O)(=O)NC(=O)c2ccc(N3CCN(CC4=C(c5ccc(Cl)cc5)CC(C)(C)CC4)CC3)cc2Oc2ccc3[nH]ccc3c2)cc1[N+](=O)[O-]` [Example 179, 4-(4-{[2-(4-chlorophenyl)-4,4-dimethylcyclohex-1-en-1-yl]methyl}piperazin-1-yl)-2-(1H-indol-5-yloxy)-N-({4-[(2-methoxyethyl)amino]-3-nitrophenyl}sulfonyl)benzamide], at GST-Bcl-XL, the inhibition constant (Ki) is > 660 nM. Also, the concentration for a half-maximal effect (EC50) in the test with FL5.12/Bcl-2 cells was determined as 23.5 nM.
Take `CC1(C)CCC(CN2CCN(c3ccc(C(=O)NS(=O)(=O)c4ccc(NC[C@@H]5CCCOC5)c([N+](=O)[O-])c4)c(Oc4ccc5[nH]ccc5c4)c3)CC2)=C(c2ccc(Cl)cc2)C1` [Example 180, 4-(4-{[2-(4-chlorophenyl)-4,4-dimethylcyclohex-1-en-1-yl]methyl}piperazin-1-yl)-2-(1H-indol-5-yloxy)-N-[(3-nitro-4-{[(3S)-tetrahydro-2H-pyran-3-ylmethyl]amino}phenyl)sulfonyl]benzamide]: the Ki on GST-Bcl-XL was > 660 nM. Moreover, the EC50 in the test with FL5.12/Bcl-2 cells worked out at 20.5 nM.
The like results for `CC1(C)CCC(CN2CCN(c3ccc(C(=O)NS(=O)(=O)c4ccc(NC[C@H]5CCCOC5)c([N+](=O)[O-])c4)c(Oc4ccc5[nH]ccc5c4)c3)CC2)=C(c2ccc(Cl)cc2)C1` [Example 181, 4-(4-{[2-(4-chlorophenyl)-4,4-dimethylcyclohex-1-en-1-yl]methyl}piperazin-1-yl)-2-(1H-indol-5-yloxy)-N-[(3-nitro-4-{[(3R)-tetrahydro-2H-pyran-3-ylmethyl]amino}phenyl)sulfonyl]benzamide] were, in that order, > 660 nM and 33.5 nM.
Consider `CC1(C)CC(c2ccc(Cl)cc2)=C(CN2CCN(c3ccc(C(=O)NS(=O)(=O)c4ccc(NCC5CCOCC5)c([N+](=O)[O-])c4)c(Oc4ccc5[nH]ccc5c4)c3)CC2)CO1` [Example 182, 4-(4-{[4-(4-chlorophenyl)-6,6-dimethyl-5,6-dihydro-2H-pyran-3-yl]methyl}piperazin-1-yl)-2-(1H-indol-5-yloxy)-N-({3-nitro-4-[(tetrahydro-2H-pyran-4-ylmethyl)amino]phenyl}sulfonyl)benzamide], for which the Ki at GST-Bcl-2 is 0.087 nM; at GST-Bcl-XL, > 660 nM. For the same molecule, the EC50 with FL5.12/Bcl-2 cells came out at 12.4 nM.
In the case of `CN1CCC(O)(CNc2ccc(S(=O)(=O)NC(=O)c3ccc(N4CCN(CC5=C(c6ccc(Cl)cc6)CC(C)(C)CC5)CC4)cc3Oc3ccc4[nH]ccc4c3)cc2[N+](=O)[O-])CC1` [Example 183, 4-(4-{[2-(4-chlorophenyl)-4,4-dimethylcyclohex-1-en-1-yl]methyl}piperazin-1-yl)-N-[(4-{[(4-hydroxy-1-methylpiperidin-4-yl)methyl]amino}-3-nitrophenyl)sulfonyl]-2-(1H-indol-5-yloxy)benzamide], the Ki at GST-Bcl-2 was 0.039 nM; on GST-Bcl-XL, 9.43 nM. The EC50 with FL5.12/Bcl-2 cells is 30.8 nM.
For `CN1CCC(Nc2ccc(S(=O)(=O)NC(=O)c3ccc(N4CCN(CC5=C(c6ccc(Cl)cc6)CC(C)(C)CC5)CC4)c(F)c3Oc3ccc4[nH]ccc4c3)cc2[N+](=O)[O-])CC1` [Example 184, 4-(4-{[2-(4-chlorophenyl)-4,4-dimethylcyclohex-1-en-1-yl]methyl}piperazin-1-yl)-3-fluoro-2-(1H-indol-5-yloxy)-N-({4-[(1-methylpiperidin-4-yl)amino]-3-nitrophenyl}sulfonyl)benzamide] the same measures were 0.281 nM, > 660 nM and 27 nM.
With `CC1(C)CCC(CN2CCN(c3ccc(C(=O)NS(=O)(=O)c4ccc(NCC5CCCOC5)c([N+](=O)[O-])c4)c(Oc4ccc5[nH]ccc5c4)c3)CC2)=C(c2ccc(Cl)cc2)C1` (stereo not drawn) [Example 261, 4-(4-{[2-(4-chlorophenyl)-4,4-dimethylcyclohex-1-en-1-yl]methyl}piperazin-1-yl)-2-(1H-indol-5-yloxy)-N-({3-nitro-4-[(tetrahydro-2H-pyran-3-ylmethyl)amino]phenyl}sulfonyl)benzamide], the inhibitory constant (Ki) on GST-Bcl-XL was > 660 nM. In the test with FL5.12/Bcl-2 cells, the EC50 is 17 nM.
The like results for `CC1(C)CCC(CN2CCN(c3ccc(C(=O)NS(=O)(=O)c4ccc(OCC5COCCO5)c([N+](=O)[O-])c4)c(Oc4ccc5[nH]ccc5c4)c3)CC2)=C(c2ccc(Cl)cc2)C1` (stereo not drawn) [Example 297, 4-(4-{[2-(4-chlorophenyl)-4,4-dimethylcyclohex-1-en-1-yl]methyl}piperazin-1-yl)-N-{[4-(1,4-dioxan-2-ylmethoxy)-3-nitrophenyl]sulfonyl}-2-(1H-indol-5-yloxy)benzamide] were, in that order, 283 nM and 13.2 nM.
The like results for `CC1(C)CCC(CN2CCN(c3ccc(C(=O)NS(=O)(=O)c4ccc(NCCOC(F)(F)F)c([N+](=O)[O-])c4)c(Oc4ccc5[nH]ccc5c4)c3)CC2)=C(c2ccc(Cl)cc2)C1` [Example 300, 4-(4-{[2-(4-chlorophenyl)-4,4-dimethylcyclohex-1-en-1-yl]methyl}piperazin-1-yl)-2-(1H-indol-5-yloxy)-N-[(3-nitro-4-{[2-(trifluoromethoxy)ethyl]amino}phenyl)sulfonyl]benzamide] were, in that order, > 660 nM and 62.1 nM.
The like results for `CC1(C)CCC(CN2CCN(c3ccc(C(=O)NS(=O)(=O)c4ccc(NCC5CCOCC5)c(S(=O)(=O)C(F)(F)F)c4)c(Oc4ccc5[nH]ccc5c4)c3)CC2)=C(c2ccc(Cl)cc2)C1` [Example 304, 4-(4-{[2-(4-chlorophenyl)-4,4-dimethylcyclohex-1-en-1-yl]methyl}piperazin-1-yl)-2-(1H-indol-5-yloxy)-N-({4-[(tetrahydro-2H-pyran-4-ylmethyl)amino]-3-[(trifluoromethyl)sulfonyl]phenyl}sulfonyl)benzamide] were, in that order, > 660 nM and 415 nM.
With `COCCNc1ccc(S(=O)(=O)NC(=O)c2ccc(N3CCN(CC4=C(c5ccc(Cl)cc5)CC(C)(C)CC4)CC3)cc2Oc2ccc3[nH]ccc3c2)cc1S(=O)(=O)C(F)(F)F` [Example 315, 4-(4-{[2-(4-chlorophenyl)-4,4-dimethylcyclohex-1-en-1-yl]methyl}piperazin-1-yl)-2-(1H-indol-5-yloxy)-N-({4-[(2-methoxyethyl)amino]-3-[(trifluoromethyl)sulfonyl]phenyl}sulfonyl)benzamide], the inhibition constant Ki on GST-Bcl-XL is > 660 nM. In the test with FL5.12/Bcl-2 cells, the concentration for a half-maximal effect (EC50) is > 500 nM.
